For six compounds, MIC, Activity and Stability results are on record in ChEMBL document CHEMBL2046382, “Synthesis, biological evaluation of 5-carbomethoxymethyl-7-hydroxy-2-pentylchromone, 5-carboethoxymethyl-4',7-dihydroxyflavone and their analogues” (Bioorg Med Chem Lett, 2012).

The test system of data set [1] is Staphylococcus aureus. The data set can be described thus: Antibacterial activity against Staphylococcus aureus MTCC 2940 by modified microtiter broth dilution method. The format is functional.
Data set [2] has as its system Bacillus subtilis. The data set can be described thus: Antibacterial activity against Bacillus subtilis MTCC 121 at 80 ug/ml by modified microtiter broth dilution method. The format is functional, organism-based.
Data set [3] deals with Staphylococcus aureus. The data set can be described thus: Antibacterial activity against Staphylococcus aureus MTCC 96 at 80 ug/ml by modified microtiter broth dilution method. Type of data set: functional, organism-based.
Data set [4] has as its system Micrococcus luteus. The data set can be described thus: Antibacterial activity against Micrococcus luteus MTCC 2470 at 80 ug/ml by modified microtiter broth dilution method. The format is functional, organism-based.
Data set [5] relates to Raoultella planticola. The data set can be described thus: Antibacterial activity against Klebsiella planticola MTCC 530 by modified microtiter broth dilution method. The format is functional.
For data set [6], the system named is Escherichia coli. The data set can be described thus: Antibacterial activity against Escherichia coli MTCC 739 at 80 ug/ml by modified microtiter broth dilution method. The format is functional, organism-based.
The test system of data set [7] is Pseudomonas aeruginosa. The data set can be described thus: Antibacterial activity against Pseudomonas aeruginosa MTCC 2453 at 80 ug/ml by modified microtiter broth dilution method. The format is functional, organism-based.
For data set [8], the system named is Radical scavenging activity. The data set can be described thus: Antioxidant activity assessed as DPPH free radical scavenging activity after 48 hrs. The format is functional.
Data set [9] can be described thus: Antioxidant activity assessed as superoxide radical scavenging activity after 48 hrs. Type of data set: functional.
Data set [10] is described as follows: Antioxidant activity of the compound assessed as inhibition of lipid peroxidation after 48 hrs. Type of data set: functional.
The test system of another data set is Erythrocyte. The data set can be described thus: Antioxidant activity in erythrocytes assessed as inhibition of hemolysis after 48 hrs. Type of data set: functional, cell-based.
The nature of data set [11]: Chemical stability of the compound in antioxidant reaction. Type of data set: physicochemical.
The test system of data set [12] is Raoultella planticola. The data set can be described thus: Antibacterial activity against Klebsiella planticola MTCC 530 at 80 ug/ml by modified microtiter broth dilution method. Type of data set: functional, organism-based.
In data set [13] the test system is Staphylococcus aureus. The data set can be described thus: Antibacterial activity against Staphylococcus aureus MTCC 2940 at 80 ug/ml by modified microtiter broth dilution method. The format is functional, organism-based.
Data set [14] relates to Staphylococcus aureus. The data set can be described thus: Antibacterial activity against Staphylococcus aureus MTCC 96 by modified microtiter broth dilution method. Type of data set: functional.
The subject of data set [15] is Pseudomonas aeruginosa. The data set can be described thus: Antibacterial activity against Pseudomonas aeruginosa MTCC 2453 by modified microtiter broth dilution method. The format is functional.
The test system of data set [16] is Bacillus subtilis. The data set can be described thus: Antibacterial activity against Bacillus subtilis MTCC 121 by modified microtiter broth dilution method. Type of data set: functional.
Data set [17] has as its system Micrococcus luteus. The data set can be described thus: Antibacterial activity against Micrococcus luteus MTCC 2470 by modified microtiter broth dilution method. Type of data set: functional.
Data set [18] deals with Escherichia coli. The data set can be described thus: Antibacterial activity against Escherichia coli MTCC 739 by modified microtiter broth dilution method. Type of data set: functional.

Each structure is given as a SMILES string. Values after ≈ are worked out from the molar mass of the structure shown. Active and inactive are the calls of the source. The rule behind the calls is not given here.

With `CCCCCc1cc(=O)c2c(CC(=O)OC)cc(O)cc2o1` [PESTALOTIOPSONE F], the MIC in the data set with Staphylococcus aureus [1] and with Raoultella planticola [5] was 9 µg/mL (≈ 29.6 µM) throughout. Further, the outcome (in the data set on Bacillus subtilis [2]; with Staphylococcus aureus [3]; in the data set on Micrococcus luteus [4]; with Escherichia coli [6]; in the data set with Pseudomonas aeruginosa [7]; in data set [8]) was inactive. Further, the outcome (in [9]; in data set [10]; in the data set on Erythrocyte) was inactive. Moreover, the Stability entry in data set [11] is “Unstable”.
In turn, `COC(=O)Cc1cc(O)cc2oc(-c3ccccc3)cc(=O)c12` returned an MIC in the data set with Staphylococcus aureus [1] of 9 µg/mL (≈ 29 µM). Moreover, the outcome in the data set on Bacillus subtilis [2], in the data set on Staphylococcus aureus [3], in the data set with Micrococcus luteus [4], in the data set on Raoultella planticola [12], in the data set on Escherichia coli [6] and in the data set with Pseudomonas aeruginosa [7] was inactive. Moreover, the outcome (in data set [8]; in data set [9]; in data set [10]; in the data set with Erythrocyte) was inactive. The Stability result in data set [11] was “Unstable”.
Take `COC(=O)Cc1cc(O)cc2occc(=O)c12`: the outcome in the data set with Staphylococcus aureus [13], in the data set with Staphylococcus aureus [3], in the data set with Micrococcus luteus [4], in the data set with Raoultella planticola [12], with Escherichia coli [6] and with Pseudomonas aeruginosa [7] was inactive. Further, the result (in [8]; in data set [9]; in data set [10]; in the data set on Erythrocyte) was inactive. The Stability entry in data set [11] is on record as “Unstable”.
Consider `COC(=O)Cc1cc(O)cc2oc(-c3ccc(Cl)cc3)cc(=O)c12`, for which the MIC in the data set with Staphylococcus aureus [1] is 75 µg/mL (≈ 218 µM); in the data set with Staphylococcus aureus [14] it was 37 µg/mL (≈ 107 µM); with Pseudomonas aeruginosa [15] it was 37 µg/mL (≈ 107 µM). Further, the result (in the data set with Bacillus subtilis [2]; in the data set with Micrococcus luteus [4]; in the data set with Raoultella planticola [12]; with Escherichia coli [6]; in data set [8]; in data set [9]) was inactive. Further, the result (in data set [10]; with Erythrocyte) was inactive. Besides, in data set [11], the Stability entry is “Unstable”.
Turning to `COC(=O)Cc1cc(O)cc2oc(-c3ccc([N+](=O)[O-])cc3)cc(=O)c12`, the minimum inhibitory concentration (MIC) against Staphylococcus aureus [1] was determined as 18 µg/mL (≈ 50.7 µM); against Bacillus subtilis [16] it was 18 µg/mL (≈ 50.7 µM); with Micrococcus luteus [17], 18 µg/mL (≈ 50.7 µM); against Raoultella planticola [5], 9 µg/mL (≈ 25.3 µM); against Escherichia coli [18], 37 µg/mL (≈ 104 µM); in the data set on Pseudomonas aeruginosa [15], 9 µg/mL (≈ 25.3 µM). The result (in the data set on Bacillus subtilis [2]; in the data set with Staphylococcus aureus [3]; in [8]; in [9]; in data set [10]; in the data set on Erythrocyte) was inactive. Besides, in [11], the Stability entry was “Unstable”.
Regarding `COC(=O)Cc1cc(O)cc2oc(-c3cc(OC)c(OC)c(OC)c3)cc(=O)c12`, the minimum inhibitory concentration (MIC) in the data set with Staphylococcus aureus [1] turned out to be 18 µg/mL (≈ 45 µM); in the data set with Bacillus subtilis [16], 9 µg/mL (≈ 22.5 µM); in the data set on Staphylococcus aureus [14] it was 18 µg/mL (≈ 45 µM); in the data set on Micrococcus luteus [17], 4 µg/mL (≈ 9.99 µM); with Raoultella planticola [5], 9 µg/mL (≈ 22.5 µM); against Escherichia coli [18] it was 18 µg/mL (≈ 45 µM). In the data set with Pseudomonas aeruginosa [15], the MIC was found to be 18 µg/mL (≈ 45 µM). Moreover, the outcome (in data set [8]; in data set [9]; in data set [10]; with Erythrocyte) was inactive. Further, the Stability entry in data set [11] is “Unstable”.
